# In ChEMBL document CHEMBL5029201, “Development of Polyamine Lassos as Polyamine Transport Inhibitors” (ACS Med Chem Lett, 2022):
# Active and inactive are the calls of the source. The rule behind the calls is not given here.
# Columns and labels:
# [1] = tested on: L3.6pl; test: Cytotoxicity against human L3.6pl cells assessed as reduction in cell growth measured after 72 hrs by CellTiter96 one aqueous solution assay; assay type: cell-based; details: for IC50: Homo sapiens, L3.6pl; for MTC: human, l3.6pl, time 72 hrs
# [2] = Inhibition of polyamine transport system in human L3.6pI cells assessed as reduction in [3H] spermidine uptake by Lineweaver-Burk double reciprocal plot analysis; assay type: cell-based; details: l3.6pl
# [3] = Inhibition of polyamine transport system in human L3.6pI cells assessed as reduction in [3H] putrescine uptake by Lineweaver-Burk double reciprocal plot analysis; assay type: cell-based; details: l3.6pl
# [4] = Inhibition of polyamine transport system in human L3.6pI cells assessed as reduction in [3H] spermine uptake by Lineweaver-Burk double reciprocal plot analysis; assay type: cell-based; details: l3.6pl
# [5] = tested on: L3.6pl; test: Inhibition of [3H]spermidine uptake in human L3.6pI cells at 3 to 10 uM measured after 15 mins by scintillation counter method; assay type: functional, cell-based; details: dose 3-10 µM
# [6] = tested on: L3.6pl; test: Inhibition of [3H]spermine uptake in human L3.6pI cells at 3 to 10 uM measured after 15 mins by scintillation counter method; assay type: functional, cell-based; details: dose 3-10 µM
# [7] = (§1) Cytotoxicity against murine L1210 cells assessed as reduction in cell growth measured after 72 hrs by CellTiter96 one aqueous solution assay; assay type: cell-based, Mus musculus; details: mouse, L1210 cells; time 72 hrs; read-out: MTC
# [8] = tested on: L1210; test: as §1; assay type: cell-based, Mus musculus; details: Mus musculus, L1210, 72 h
# [9] = tested on: L3.6pl; test: Inhibition of spermidine uptake in human L3.6pI cells assessed as effect on cell growth measured after 72 hrs in presence of DFMO by CellTiter96 aqueous one solution assay; assay type: functional, cell-based
# [10] = Inhibition of polyamine transport system in murine L1210 cells assessed as reduction in [3H] spermidine uptake by Lineweaver-Burk double reciprocal plot analysis; assay type: cell-based, Mus musculus
# [11] = tested on: L3.6pl; test: Effect on human L3.6pI cells assessed as rescue of Ant44-induced toxicity at 30 uM measured after 24 hrs; assay type: functional
# [12] = Decrease in intracellular polyamine level in human L3.6pI cells assessed as Spd/Spm molar ratio at 30 uM measured after 24 hrs by HPLC analysis (reference value: 1.9); assay type: functional, L3.6pl
# [13] = Decrease in intracellular polyamine level in human L3.6pI cells assessed as total polyamine level at 30 uM measured after 24 hrs in presence of DFMO by HPLC analysis (reference value: 20.7 nmol/mg); assay type: functional, L3.6pl
# [14] = Decrease in intracellular polyamine level in human L3.6pI cells assessed as total polyamine level at 30 uM measured after 24 hrs by HPLC analysis (reference value: 35.9 nmol/mg); assay type: functional, L3.6pl
# [15] = Decrease in intracellular polyamine level in human L3.6pI cells assessed as Spd/Spm molar ratio at 30 uM measured after 24 hrs in presence of DFMO by HPLC analysis (reference value: 0.2); assay type: functional, L3.6pl
# [16] = Decrease in intracellular polyamine level in human L3.6pI cells assessed as total polyamine level at 30 uM measured after 24 hrs in presence of DFMO and Spd by HPLC analysis (reference value: 23.5 nmol/mg); assay type: functional, L3.6pl
# [17] = Decrease in intracellular polyamine level in human L3.6pI cells assessed as Spd/Spm molar ratio at 30 uM measured after 24 hrs in presence of DFMO and Spd by HPLC analysis (reference value: 0.4); assay type: functional, L3.6pl
# [18] = tested on: L3.6pl; test: Inhibition of [3H]putresine uptake in human L3.6pI cells at up to 30 uM measured after 15 mins by scintillation counter method; assay type: functional, cell-based; details: dose microM <=30, time 15.0 min
SMILES,IC50 [1] [µM],MTC [1] [µM],Ki [2] [µM],Ki [3] [µM],Ki [4] [µM],inhibition [5],inhibition [6],MCC at 72 h [7] [nM],IC50 [8] [µM],Activity [9],Ki [10] [µM],Activity [11],Ratio [12],Activity [13] [nmol/mg],Activity [14] [nmol/mg],Ratio [15],Activity [16] [nmol/mg],Ratio [17],inhibition [18]
C1CNCCNCCN1,980,250,–,–,–,–,–,–,–,–,–,–,–,–,–,–,–,–,–
CNCCCCNCCCCNCc1cc(CNCCCCNCCCCNC)cc(CNCCCCNCCCCNC)c1,50,3,2.6,17.4,0.9,Active,Active,–,–,–,–,–,–,–,–,–,–,–,–
Cl.Cl.Cl.Cl.Cl.NCCCCNCCCCN1CCCNCCCNCCC1,368,100,3.7,–,–,–,–,1000,> 100,Active,7.1,–,–,–,–,–,–,–,–
Cl.Cl.Cl.Cl.Cl.NCCCCNCCCCN1CCNCCNCC1,1170,500,3.3,11.6,1.3,Active,Active,> 100000,> 100,Active,1.9,Active,1.6,17,36.4,0.1,20.8,0.2,inactive
C1CNCCCNCCCNC1,129,50,–,–,–,–,–,–,–,–,–,–,–,–,–,–,–,–,–
